Test results: ChEMBL document CHEMBL1201862, “PubChem BioAssay data set” (2004)
Calls of active or inactive are those of the source.

Assays:
[1] = OVCAR8 cell viability loss – plate reader, dry powder samples, PAX8 project, dose response (AID 743197); type: functional, cell-based; conditions: OVCAR-8
Paired box protein Pax-8 = Paired box protein Pax-8 (Homo sapiens, UniProt Q06710); experiment: PAX8 transcriptional activity inhibition in RMG-I – RMG-I cells, luciferase, cherry-pick, dose response (AID 687027); type: functional, cell-based;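 further: luciferase reporter driven by Pax8 target thyroperoxidase promoter measured by SteadyGlo luminescence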
Paired box protein Pax-8, sequence (Q06710 whole entry): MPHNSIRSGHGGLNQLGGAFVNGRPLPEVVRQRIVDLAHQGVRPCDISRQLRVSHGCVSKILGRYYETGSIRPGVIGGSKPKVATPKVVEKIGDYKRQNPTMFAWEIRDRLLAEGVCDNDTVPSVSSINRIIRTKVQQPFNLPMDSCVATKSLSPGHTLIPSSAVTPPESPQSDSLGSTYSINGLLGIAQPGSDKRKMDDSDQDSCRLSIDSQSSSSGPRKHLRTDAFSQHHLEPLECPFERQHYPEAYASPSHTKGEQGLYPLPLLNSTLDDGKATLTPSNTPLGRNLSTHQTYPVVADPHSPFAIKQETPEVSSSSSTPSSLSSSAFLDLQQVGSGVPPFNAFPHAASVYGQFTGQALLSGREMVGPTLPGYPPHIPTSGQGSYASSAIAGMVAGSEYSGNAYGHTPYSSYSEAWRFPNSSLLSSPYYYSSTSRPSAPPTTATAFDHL

[2] = OVCAR-3 cell viability loss – plate reader, dry powder samples, PAX8 inhibitor project, dose response (AID 743044); type: functional, cell-based
Cytochrome P450 3A4 = Cytochrome P450 3A4 (Homo sapiens, UniProt P08684); conditions: Potency;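 further: confirmatory qHTS run detecting inhibitors and substrates of CYP3A4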
Cytochrome P450 3A4, sequence (P08684 whole entry): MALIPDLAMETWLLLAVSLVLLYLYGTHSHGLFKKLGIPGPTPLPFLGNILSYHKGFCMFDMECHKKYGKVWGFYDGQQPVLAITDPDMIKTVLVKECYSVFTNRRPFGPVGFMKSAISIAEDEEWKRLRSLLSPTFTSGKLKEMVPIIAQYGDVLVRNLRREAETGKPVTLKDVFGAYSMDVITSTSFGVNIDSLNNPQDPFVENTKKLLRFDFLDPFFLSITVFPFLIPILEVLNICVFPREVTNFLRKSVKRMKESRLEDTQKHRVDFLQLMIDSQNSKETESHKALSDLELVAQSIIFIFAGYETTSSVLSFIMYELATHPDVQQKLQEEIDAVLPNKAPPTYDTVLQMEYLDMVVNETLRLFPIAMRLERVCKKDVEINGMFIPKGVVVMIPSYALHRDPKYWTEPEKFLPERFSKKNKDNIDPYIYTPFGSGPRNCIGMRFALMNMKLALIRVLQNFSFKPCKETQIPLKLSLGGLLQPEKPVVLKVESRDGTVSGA

[3] = biological target: T1, Corticotropin-releasing factor receptor 2/Corticotropin-releasing factor-binding protein (Homo sapiens, UniProt P24387+Q13324); experiment: Dose Response confirmation of uHTS hits for small molecule antagonists of the CRF-binding protein and CRF-R2 receptor complex.; type: functional; conditions: read-out: IC50_Mean
T1 sequence (Q13324 whole entry): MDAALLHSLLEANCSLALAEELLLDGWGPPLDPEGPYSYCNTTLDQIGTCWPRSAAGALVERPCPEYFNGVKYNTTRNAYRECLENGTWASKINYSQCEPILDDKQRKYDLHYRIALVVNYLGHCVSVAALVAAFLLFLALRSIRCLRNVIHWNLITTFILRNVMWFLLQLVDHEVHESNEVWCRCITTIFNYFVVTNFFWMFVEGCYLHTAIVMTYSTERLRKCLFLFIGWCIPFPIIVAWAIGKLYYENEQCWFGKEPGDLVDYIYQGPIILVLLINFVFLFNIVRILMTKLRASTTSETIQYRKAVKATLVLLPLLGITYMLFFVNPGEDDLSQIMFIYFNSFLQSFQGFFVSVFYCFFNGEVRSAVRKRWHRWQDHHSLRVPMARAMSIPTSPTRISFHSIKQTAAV
T1 sequence (P24387 whole entry): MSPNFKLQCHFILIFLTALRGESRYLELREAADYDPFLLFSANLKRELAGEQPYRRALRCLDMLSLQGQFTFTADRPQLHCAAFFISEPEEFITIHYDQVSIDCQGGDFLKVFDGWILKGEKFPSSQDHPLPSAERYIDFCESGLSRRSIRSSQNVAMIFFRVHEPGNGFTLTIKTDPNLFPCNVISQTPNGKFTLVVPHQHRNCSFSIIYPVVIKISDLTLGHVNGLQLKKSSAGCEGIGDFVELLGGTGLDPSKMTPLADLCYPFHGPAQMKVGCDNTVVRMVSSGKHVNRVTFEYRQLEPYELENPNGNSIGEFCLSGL

[4] = biological target: T1, Corticotropin-releasing factor receptor 2/Corticotropin-releasing factor-binding protein; experiment: activators of CRF receptor 2 with binding protein – uHTS hits, confirmation (AID 602473); type: functional; conditions: read-out: EC50_Mean
[5] = biological target: FAD-linked sulfhydryl oxidase ALR (Homo sapiens, UniProt P55789); experiment: ALR-catalysed DTT oxidation blockers – biochemical, H2O2 detection, luminescence, cherry-pick, dose response (AID 493248)
FAD-linked sulfhydryl oxidase ALR, sequence (P55789 whole entry): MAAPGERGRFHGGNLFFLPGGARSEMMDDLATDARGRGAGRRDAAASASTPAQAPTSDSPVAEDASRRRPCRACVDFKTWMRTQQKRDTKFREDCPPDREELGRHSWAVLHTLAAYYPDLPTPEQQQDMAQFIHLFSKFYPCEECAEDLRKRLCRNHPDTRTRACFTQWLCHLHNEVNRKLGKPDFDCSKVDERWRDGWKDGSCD

[6] = biological target: T2, Ubiquitin-conjugating enzyme E2 N (Homo sapiens, UniProt P61088); type: functional;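 further: Dose-response confirmation in a TR-FRET assay detecting UBC13-driven polyubiquitin chain formation, inhibition measured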
T2 sequence (P61088 whole entry): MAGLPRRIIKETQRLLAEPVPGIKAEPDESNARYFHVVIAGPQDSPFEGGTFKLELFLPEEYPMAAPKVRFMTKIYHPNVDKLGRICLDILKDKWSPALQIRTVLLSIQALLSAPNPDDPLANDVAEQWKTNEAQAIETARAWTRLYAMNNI

[7] = NIH3T3 cell viability loss – ATP luminescence, mouse fibroblasts, counter-screen, dose response (AID 2010); type: functional, cell-based;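 further: cells exposed to compound for about 90 hours before reading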
[8] = Trypanosoma cruzi growth suppression in host cells – NIH3T3 host cells, beta-gal luminescence, confirmation (AID 2044); type: functional, cell-based;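 further: intracellular parasites grown in NIH/3T3 mouse fibroblasts as host cells; luminescent beta-galactosidase reporter signal from transgenic T. cruzi replicating inside host cells; inhibitors lower the luminescence signal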
[9] = intracellular Trypanosoma cruzi inhibitors in host cells – cell-based, plate reader, cherry-pick samples, set 3, dose response (AID 651818); type: functional;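 further: compounds incubated with infected cells for about four days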
[10] = toxicity toward HepG2 liver cells – cell-based, plate reader, cherry-pick, antagonist series, cytotoxicity control, dose response (AID 743416); type: functional
[11] = biological target: Luciferin 4-monooxygenase (Photinus pyralis, UniProt P08659); experiment: inhibition of purified Photinus pyralis luciferase – biochemical, luminescence, dose response (AID 1891)
Luciferin 4-monooxygenase, sequence (P08659 whole entry): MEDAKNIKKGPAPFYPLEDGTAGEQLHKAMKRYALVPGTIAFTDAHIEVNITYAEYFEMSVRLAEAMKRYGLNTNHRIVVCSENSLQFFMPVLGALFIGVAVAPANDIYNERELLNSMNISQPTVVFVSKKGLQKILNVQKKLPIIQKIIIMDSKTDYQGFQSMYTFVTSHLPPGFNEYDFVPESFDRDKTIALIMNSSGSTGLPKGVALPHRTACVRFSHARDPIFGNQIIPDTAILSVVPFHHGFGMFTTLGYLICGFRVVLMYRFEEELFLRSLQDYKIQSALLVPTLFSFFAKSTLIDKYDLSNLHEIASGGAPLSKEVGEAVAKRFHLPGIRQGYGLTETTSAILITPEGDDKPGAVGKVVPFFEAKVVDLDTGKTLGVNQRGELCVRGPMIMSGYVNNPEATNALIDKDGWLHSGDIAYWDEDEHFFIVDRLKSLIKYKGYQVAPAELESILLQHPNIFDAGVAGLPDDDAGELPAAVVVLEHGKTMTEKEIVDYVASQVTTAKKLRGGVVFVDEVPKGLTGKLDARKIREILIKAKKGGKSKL

[12] = Luminescence Cell-Based Dose Confirmation HTS to Identify Inhibitors of Platelet Dense Granule Release. [Related pubchem assays: 1663 (Primary HTS), 1678 (Summary of Project)]; type: functional
cells = type: functional
[13] = blockers of HIV-1 envelope-mediated cell-cell fusion – cherry-pick, dose response (AID 652057); type: functional, cell-based
[14] = HIV-1 AD8 envelope cell-cell fusion blockers – cherry-pick, dose response (AID 652062); type: functional, cell-based;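 further: luciferase signal from cell-cell fusion driven by HIV-1 clade B AD8 Env; potency is for inhibitors of fusion seen as a drop in luminescence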
[15] = P. falciparum Dd2 growth inhibitors, dose response, SYBR Green, cherry-picked samples (AID 1159567); type: functional, cell-based

C[C@@H]1CN([C@H](C)CO)C(=O)c2cc(NC(=O)Nc3cccc4ccccc34)ccc2O[C@@H]1CN(C)C(=O)Nc1cccc2ccccc12
AC50 [1]: 46.1 µM (active) | AC50 (Paired box protein Pax-8): 6.15 µM (active) | AC50 [2]: 49.7 µM (active)

COC(=O)[C@@H]1C[C@H]2CC[C@H](O)C[C@H]2N1Cc1ccc(N2CCOCC2)cc1
AC50 (Cytochrome P450 3A4): 20 µM (inconclusive)

CN(C)c1ccc(/C(=N\O)c2ccccc2)cc1
IC50 [3]: > 47.1 µM (inactive) | EC50 [4]: > 53 µM (inactive) | AC50 [5]: 1.64 µM (active)

CCC(C)[C@H]1CN=C(N)N1CCc1cc(C(F)(F)F)cc(C(F)(F)F)c1 (stereo not given in full)
IC50 [6]: > 20 µM (inactive)

CCCCN(C)CCCNC(=O)c1cc(-c2cccs2)nc2ccccc12
EC50 [7]: > 60 µM (not active) | EC50 [8]: 0.183 µM (active) | IC50 [6]: > 20 µM (inactive)

C[C@@H]1CCCCO[C@@H](CN(C)Cc2ccc(Cl)c(Cl)c2)[C@@H](C)CN([C@H](C)CO)C(=O)c2cc(NC(=O)Nc3ccc(C(F)(F)F)cc3)ccc2O1
AC50 [9]: 2.84 µM (active)

Nc1ncc([N+](=O)[O-])cc1S(=O)(=O)c1ccccc1
IC50 [6]: > 20 µM (inactive)

Cc1ccc(C(=O)NCCN2C3=NC[C@H](Cc4ccc(O)cc4)N3C[C@H]2Cc2ccc(O)cc2)cc1Br
IC50 [6]: > 20 µM (inactive)

CC1(C)Cc2c(sc(/N=C/N3CCCC3)c2C#N)C(C)(C)N1
IC50 [3]: > 47.1 µM (inactive) | EC50 [4]: > 53 µM (inactive)

COCC#Cc1ccc2c(c1)O[C@H](CN(C)S(=O)(=O)c1cccc(F)c1)[C@@H](C)CN([C@H](C)CO)S2(=O)=O
AC50 [10]: > 52 µM (inactive)

C#CCOCCOCCOCCNc1nc(N2CCN(C(=O)[C@H](CCCCN)n3cc([C@@H](N)[C@H](C)CC)nn3)CC2)nc(N2CCN(C(=O)[C@H](CCC(=O)O)n3cc([C@@H](N)CCCCN)nn3)CC2)n1
IC50 [6]: > 20 µM (inactive)

CCC(Oc1cc(Cl)ccc1Cl)C(=O)NNC(=O)CCC(=O)O (stereo not given)
EC50 [11]: > 112 µM (not active) | EC50 [12]: > 112 µM (not active)

Cc1ccccc1C(=O)NN1CC(C(=O)OCc2ccc(Cl)c(Cl)c2)CC1=O (stereo not given)
IC50 (cells): 22.2 µM (active)

CCN(CC(=O)Nc1ccccc1C(F)(F)F)C(=O)CCc1c(C)nc(O)c(C#N)c1C
EC50 [11]: > 112 µM (not active) | EC50 [12]: 2.71 µM (active)

Cc1nn(-c2cccc([N+](=O)[O-])c2)c(N)c1-c1ccccc1
IC50 [3]: > 47.1 µM (inactive) | EC50 [4]: > 53 µM (inactive)

COc1ccc(OC2C(=O)N(Cc3ccc(F)cc3)C2c2cc(OC)c(OC)c(OC)c2)cc1 (stereo not given)
IC50 [3]: > 47.1 µM (inactive) | EC50 [4]: > 53 µM (inactive)

CCC(C)Nc1nc2c(c(=O)n(C)c(=O)n2C)n1Cc1ccc(F)cc1 (stereo not given)
AC50 [5]: 2.09 µM (active)

CC1=CC2=NC(=O)/C(=C\c3ccc(OC(=O)c4ccco4)cc3)C(=N)N2O1
IC50 (cells): 21.8 µM (active)

CSc1ccccc1OCc1cc(C(=O)NCc2csc(C(C)C)n2)no1
IC50 [3]: > 47.1 µM (inactive) | EC50 [4]: > 53 µM (inactive)

CCCC(=O)Nc1ccc(-c2csc(NNC(C)=O)n2)cc1
AC50 [5]: 0.859 µM (active)

COC(=O)c1cc(-c2cccs2)nc2ccccc12
IC50 [6]: > 20 µM (inactive)

O=C(O)C(c1ccccc1)C1(O)CCCC1 (stereo not given)
IC50 [3]: > 47.1 µM (inactive) | EC50 [4]: > 53 µM (inactive)

COC(=O)c1c(C(=O)OC)c(-c2ccc(F)cc2)n2c1CSC2
AC50 [5]: 0.218 µM (active)

C[C@@H]1CN([C@@H](C)CO)C(=O)c2cccc(NS(=O)(=O)c3ccccc3)c2O[C@H]1CN(C)Cc1ccc(-c2ccccc2)cc1
AC50 [9]: 1.39 µM (active)

COc1cccc(CNC(=O)c2cc(S(=O)(=O)N3CCCC3)cn2C)c1
EC50 [11]: > 112 µM (not active) | EC50 [12]: > 112 µM (not active)

CN1C(=O)C2(c3ccccc31)N(C)CC(c1ccccc1)C21SC(=S)N(Cc2ccco2)C1=O (stereo not given)
AC50 [13]: 46.4 µM (active) | AC50 [14]: 36.5 µM (active)

COC(=O)[C@@H]1C[C@@]2(O)[C@H](O)[C@H](O)[C@H](O)C[C@H]2N1CC(c1ccccc1)c1ccccc1
AC50 (Cytochrome P450 3A4): 20 µM (inconclusive)

C[C@@H]1CCCCO[C@H](CN(C)C(=O)Nc2ccc3c(c2)OCO3)[C@@H](C)CN([C@H](C)CO)C(=O)c2cc(NC(=O)Nc3ccc(C(F)(F)F)cc3)ccc2O1
AC50 [9]: 2.56 µM (active)

COC(=O)c1ccc(=O)n(-c2ccc(OC)cc2)c1
EC50 [11]: > 112 µM (not active) | EC50 [12]: > 112 µM (not active)

CN(C)c1ccc(CN(C(=O)c2ccccc2Br)C2CCS(=O)(=O)C2)cc1 (stereo not given)
AC50 [5]: 1.88 µM (active)

Cc1nnc(NC(=O)c2ccc3ccccc3c2)o1
IC50 (cells): 1.64 µM (active)

COc1cc(CN2CCNC(=O)C2CC(=O)NCCCN2CCOCC2)cc(OC)c1 (stereo not given)
EC50 [11]: > 112 µM (not active) | EC50 [12]: > 112 µM (not active)

CCC(=O)N1CC2(C1)CN(C(=O)Nc1ccccc1F)[C@H](CO)c1[nH]c3cc(OC)ccc3c12
AC50 [15]: 15.9 µM (active)

Cc1cc(O)c(C=O)c2c1C(=O)Oc1c(C)c(O)c3c(c1O2)C(O)OC3=O (stereo not given) [NORSTICTIC ACID]
AC50 (Cytochrome P450 3A4): 39.8 µM (inconclusive)

C[C@@H]1CN([C@@H](C)CO)C(=O)c2cccc(NC(=O)Nc3ccc(C(F)(F)F)cc3)c2O[C@H]1CN(C)C(=O)Nc1ccc(C(F)(F)F)cc1
AC50 [9]: 6.06 µM (active)

c1ccc2cc(OCCCn3ccnc3)ccc2c1
EC50 [7]: > 60 µM (not active) | EC50 [8]: 1.01 µM (active) | IC50 (cells): 42.5 µM (active)

CCC(C)NC(=O)CSc1nc2ccccc2c(=O)n1CCCC(=O)NCC1CCCO1 (stereo not given)
IC50 [3]: > 47.1 µM (inactive) | EC50 [4]: > 53 µM (inactive)

CN1CCN(S(=O)(=O)c2cccc([N+](=O)[O-])c2)CC1
EC50 [11]: > 112 µM (not active) | EC50 [12]: > 112 µM (not active)

COc1ccc(NC(=O)N(C)C[C@@H]2Oc3cc(-c4ccc(C)cc4)ccc3S(=O)(=O)N([C@H](C)CO)C[C@H]2C)cc1
AC50 [15]: 3.38 µM (active)

COc1ccc(N2CCN(c3ccc(C(=O)O)cc3[N+](=O)[O-])CC2)cc1
AC50 [5]: 5.03 µM (active)

Cc1nc2sc(C(c3ccccc3)N3CCN(c4ccccc4F)CC3)c(O)n2n1 (stereo not given)
EC50 [11]: > 112 µM (not active) | EC50 [12]: > 112 µM (not active)

O=C(c1ccncc1)N1CCN(C(=O)c2cccc3ccccc23)CC1
EC50 [11]: > 112 µM (not active) | EC50 [12]: 16.6 µM (active)

CCOc1ccc(CCNC(=O)C2CCCN(c3ncnc4c3nc3n4CCCCC3)C2)cc1 (stereo not given)
IC50 [3]: > 47.1 µM (inactive) | EC50 [4]: > 53 µM (inactive)

C[C@H](CO)N1C[C@H](C)[C@H](CN(C)Cc2ccc(C(F)(F)F)cc2)Oc2ccc(NS(=O)(=O)c3ccc(Cl)cc3)cc2C1=O
AC50 [9]: 4.5 µM (active)

CC(C)OC(=O)c1cc(C(=O)c2cc(Cl)ccc2O)coc1=N
IC50 (cells): 23.2 µM (active)

C[C@H]1CN([C@@H](C)CO)C(=O)Cc2cc(NC(=O)NC3CCCCC3)ccc2O[C@@H]1CN(C)Cc1ccc(Cl)c(Cl)c1
AC50 [9]: 7.18 µM (active)

C[C@@H]1CCCCO[C@H](CN(C)Cc2ccncc2)[C@H](C)CN([C@H](C)CO)C(=O)c2cc(NC(=O)Nc3ccc(C(F)(F)F)cc3)ccc2O1
AC50 (Paired box protein Pax-8): 7.43 µM (active) | AC50 [2]: 35.4 µM (active)

COc1ccc(S(=O)(=O)Nc2ccc3c(c2)CC(=O)N([C@H](C)CO)C[C@@H](C)[C@@H](CN(C)Cc2ccc(Cl)c(Cl)c2)O3)cc1
AC50 [9]: 3.78 µM (active)

C[C@@H]1CCCCO[C@@H](CN(C)Cc2ccc(Cl)c(Cl)c2)[C@@H](C)CN([C@H](C)CO)C(=O)c2cc(NC(=O)CCC(F)(F)F)ccc2O1
AC50 [9]: 3.1 µM (active)

COc1ccccc1S(=O)(=O)N(C)C[C@@H]1Oc2cc(C#CCC(C)C)ccc2S(=O)(=O)N([C@@H](C)CO)C[C@@H]1C
AC50 [15]: 3.17 µM (active)
